Laboratory results as given in publication PMC7180572, “5-Alkylamino-N-phenylpyrazine-2-carboxamides: Design, Preparation, and Antimycobacterial Evaluation” (Molecules, 2020).
Converted amounts (≈) assume the structure as drawn.

Experiments:
[1] = tested on: Mycobacterium tuberculosis H37Ra ITM-M006710 (ATCC 9431); assay: Microdilution broth, modified Microplate Alamar Blue Assay, whole cell growth inhibition; assay type: cell-based; details: Mycobacterium tuberculosis; in vitro, Middlebrook 7H9 broth, resazurin; read-out: MIC Mtb H37Ra
[2] = tested on: Mycobacterium aurum DSM 43999 (ATCC 23366); assay: as above; assay type: cell-based; details: Mycolicibacterium aurum; in vitro, Middlebrook 7H9 broth, resazurin; read-out: MIC Mycobacterium aurum
[3] = assay type: physicochemical
Procedure: As a complementary test, final compounds were tested for in vitro activity against selected fungal and bacterial pathogens of clinical importance. The microdilution broth method was performed according to The European Committee on Antimicrobial Susceptibility Testing (EUCAST) instructions with slight modifications. The minimum inhibitory concentration was expressed in µM. Not all compounds were evaluated due to the fact of a problem with solubility which occurred for 18 samples. […] See Supplementary Materials for the list of tested strains, methodology, and full results.

HepG2 cells = assay: HepG2 cytotoxicity, CellTiter 96 (MTS) assay; assay type: cell-based, human; details: for IC50: Homo sapiens, HepG2, 24 h incubation, > means higher concentration not reproducible due to precipitation, read-out: HepG2 IC50
[4] = tested on: Mycobacterium smegmatis DSM 43465 (ATCC 607); assay: Microdilution broth, modified Microplate Alamar Blue Assay, whole cell growth inhibition; assay type: cell-based; details: Mycolicibacterium smegmatis; in vitro, Middlebrook 7H9 broth, resazurin; read-out: MIC Mycobacterium smegmatis

SMILES | melting point | MIC [1] | MIC [2] | Solubility problem in antibacterial/antifungal testing [3] | IC50 (HepG2 cells) | MIC [4] | SI, selectivity index (HepG2 cells; IC50 (HepG2)/MIC against Mtb H37Ra (in µM))
CCCCCCCCNc1cnc(C(=O)Nc2ccc(Cl)cc2O)cn1 [Compound 6f, N-(4-chloro-2-hydroxyphenyl)-5-(octylamino)pyrazine-2-carboxamide] | 196.9 to 197.9 °C | ≥ 500 µg/mL | ≥ 500 µg/mL | did not dissolve in DMSO | > 50 µM | 7.81 µg/mL (≈ 20.7 µM) | 
CCCCCCNc1cnc(C(=O)Nc2cccc(O)c2)cn1 [Compound 2d, 5-(Hexylamino)pyrazine-N-(3-hydroxyphenyl)-2-carboxamide] | 225 to 226 °C | ≥ 500 µg/mL | ≥ 500 µg/mL | precipitated in both growth media | > 10 µM | ≥ 500 µg/mL | 
CCCCNc1cnc(C(=O)Nc2ccc(CC)cc2)cn1 [Compound 5b, 5-(Butylamino)pyrazine-N-(4-ethylphenyl)-2-carboxamide] | 133.8 to 134.8 °C | ≥ 500 µg/mL | ≥ 500 µg/mL | precipitated in both growth media | > 50 µM | ≥ 500 µg/mL | 
CCCCCCCNc1cnc(C(=O)Nc2cccc(O)c2)cn1 [Compound 2e, 5-(Heptylamino)pyrazine-N-(3-hydroxyphenyl)-2-carboxamide] | 222 to 223 °C | ≥ 500 µg/mL | ≥ 500 µg/mL | precipitated in both growth media | > 10 µM | 250 µg/mL (≈ 761 µM) | 
CCCNc1cnc(C(=O)Nc2ccc(C)cc2)cn1 [Compound 4a, 5-(Propylamino)-N-(p-tolyl)pyrazine-2-carboxamide] | 168 to 169 °C | 15.6 µg/mL (≈ 57.8 µM) | ≥ 500 µg/mL | precipitated in both growth media | > 100 µM | 31.2 µg/mL (≈ 116 µM) | >1.73
CCCCCCCCNc1cnc(C(=O)Nc2cc(Cl)ccc2O)cn1 [Compound 7f, N-(5-chloro-2-hydroxyphenyl)-5-(octylamino)pyrazine-2-carboxamide] | 239.7 to 242.4 °C | ≥ 500 µg/mL | ≥ 500 µg/mL | did not dissolve in DMSO | > 50 µM | 250 µg/mL (≈ 663 µM) | 
CCCCNc1cnc(C(=O)Nc2cc(Cl)ccc2O)cn1 [Compound 7b, 5-(Butylamino)pyrazine-N-(5-chloro-2-hydroxyphenyl)-2-carboxamide] | 257.9 to 262.1 °C | ≥ 500 µg/mL | ≥ 500 µg/mL | did not dissolve in DMSO | > 25 µM | 3.91 µg/mL (≈ 12.2 µM) | 
CCCCCCNc1cnc(C(=O)Nc2cc(Cl)ccc2O)cn1 [Compound 7d, N-(5-chloro-2-hydroxyphenyl)-5-(hexylamino)pyrazine-2-carboxamide] | 249.3 to 251.9 °C | ≥ 500 µg/mL | ≥ 500 µg/mL | did not dissolve in DMSO | > 25 µM | ≥ 500 µg/mL | 
CCCNc1cnc(C(=O)Nc2cc(Cl)ccc2O)cn1 [Compound 7a, N-(5-chloro-2-hydroxyphenyl)-5-(propylamino)pyrazine-2-carboxamide] | 254 to 259 °C | ≥ 500 µg/mL | 250 µg/mL (≈ 815 µM) | did not dissolve in DMSO | > 25 µM | < 3.91 µg/mL | 
CCCCCNc1cnc(C(=O)Nc2ccc(CC)cc2)cn1 [Compound 5c, N-(4-ethylphenyl)-5-(pentylamino)pyrazine-2-carboxamide] | 136.1 to 137.1 °C | ≥ 500 µg/mL | ≥ 500 µg/mL | precipitated in both growth media | > 25 µM | ≥ 500 µg/mL | 
